How the values were obtained:
[1] = system: Pasteurella multocida; assay: Treatment of Pasteurella infections in chicks (Table V); type: in vivo, one-day-old chicks; settings: Pasteurella multocida, sc, 4 h; 30 mg/kg by subcutaneous injection one and four hours post challenge; read-out: Deaths in Treated Chicks/Number Treated (converted)
Procedure, shortened: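 One-day-old chicks challenged subcutaneously with avian P. multocida (0.1 ml of 10^-3 dilution of 20-hour tryptose broth culture). Esters given at 30 mg/kg subcutaneously at 1 and 4 hours post challenge. Untreated infected controls, ten per group.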

[2] = system: Pasteurella haemolytica 41D; assay: MIC, broth-dilution microtiter test (Table III); type: cell-based; set-up: unit not given here
Description: (§1) The MIC's in Table II were determined by standard agar-dilution assays. The MIC's in Table III were obtained using a conventional broth-dilution microtiter test.

[3] = system: Mycoplasma gallisepticum; assay: MIC, broth-dilution microtiter test (Table III); type: cell-based; set-up: unit not given here
Description: as §1

[4] = system: Pasteurella haemolytica 23C; assay: MIC, broth-dilution microtiter test (Table III); type: cell-based; set-up: unit not given here
Description: as §1

[5] = system: Streptococcus sp. 80; assay: MIC, broth-dilution microtiter test (Table III); type: cell-based; set-up: unit not given here
Description: as §1

[6] = system: Mycoplasma hyorhinis; assay: MIC, broth-dilution microtiter test (Table III); type: cell-based; set-up: unit not given here
Description: as §1

[7] = system: Pasteurella multocida 22A; assay: MIC, broth-dilution microtiter test (Table III); type: cell-based; set-up: unit not given here
Description: as §1

[8] = system: Mycoplasma synoviae; assay: MIC, broth-dilution microtiter test (Table III); type: cell-based; set-up: unit not given here
Description: as §1

[9] = system: Pasteurella multocida 17E; assay: MIC, broth-dilution microtiter test (Table III); type: cell-based; set-up: unit not given here; settings: bovine isolate
Description: as §1

[10] = system: Staphylococcus aureus; assay: MIC, broth-dilution microtiter test (Table III); type: cell-based; set-up: unit not given here
Description: as §1

[11] = system: Pasteurella multocida 68C; assay: MIC, broth-dilution microtiter test (Table III); type: cell-based; set-up: unit not given here
Description: as §1

[12] = system: Pasteurella multocida 60A; assay: MIC, broth-dilution microtiter test (Table III); type: cell-based; set-up: unit not given here; settings: avian isolate
Description: as §1

[13] = system: Pasteurella haemolytica 22C; assay: MIC, broth-dilution microtiter test (Table III); type: cell-based; set-up: unit not given here
Description: as §1

[14] = system: Pasteurella multocida 40G; assay: MIC, broth-dilution microtiter test (Table III); type: cell-based; set-up: unit not given here
Description: as §1

[15] = system: Staphylococcus epidermidis EPI1; assay: MIC, standard agar-dilution assay (Table II); type: cell-based; set-up: unit not given here
Description: as §1

[16] = system: Streptococcus pneumoniae Park I; assay: MIC, standard agar-dilution assay (Table II); type: cell-based; set-up: unit not given here
Description: as §1

[17] = system: Streptococcus Group D 9960; assay: MIC, standard agar-dilution assay (Table II); type: cell-based; set-up: unit not given here
Description: as §1

[18] = system: Haemophilus influenzae Holt; assay: MIC, standard agar-dilution assay (Table II); type: cell-based; set-up: unit not given here; settings: ampicillin-sensitive strain
Description: as §1

[19] = system: Streptococcus pyogenes C203; assay: MIC, standard agar-dilution assay (Table II); type: cell-based; set-up: unit not given here
Description: as §1

[20] = system: Streptococcus Group D X66; assay: MIC, standard agar-dilution assay (Table II); type: cell-based; set-up: unit not given here
Description: as §1

[21] = system: Staphylococcus aureus V41; assay: MIC, standard agar-dilution assay (Table II); type: cell-based; set-up: unit not given here; settings: Staphylococcus aureus V41, penicillin-resistant strain
Description: as §1

[22] = system: Haemophilus influenzae R252; assay: MIC, standard agar-dilution assay (Table II); type: cell-based; set-up: unit not given here; settings: Haemophilus influenzae R252, ampicillin-resistant strain
Description: as §1

[23] = system: Staphylococcus aureus S13E; assay: MIC, standard agar-dilution assay (Table II); type: cell-based; set-up: unit not given here
Description: as §1

[24] = system: Staphylococcus epidermidis EPI2; assay: MIC, standard agar-dilution assay (Table II); type: cell-based; set-up: unit not given here
Description: as §1

[25] = system: Staphylococcus aureus X1.1; assay: MIC, standard agar-dilution assay (Table II); type: cell-based; set-up: unit not given here
Description: as §1

[26] = system: Staphylococcus aureus X400; assay: MIC, standard agar-dilution assay (Table II); type: cell-based; set-up: unit not given here; settings: Staphylococcus aureus X400, methicillin-resistant strain
Description: as §1

In the case of `CCC1OC(=O)CC(O)C(C)C(OC2OC(C)C(O)C(N(C)C)C2OC(C)=O)C(CC=O)CC(C)C(=O)C=CC(C)=CC1COC(=O)OC` (stereo not drawn) [Compound 73], the mortality at 30 mg/kg [1] is reported as 0%, the “minimal inhibitory concentration (MIC)” value [2] is reported as 3.12 and the “minimal inhibitory concentration (MIC)” value [3] is reported as 0.097. For the same molecule, the “minimal inhibitory concentration (MIC)” value [4] was 6.25, the “minimal inhibitory concentration (MIC)” value [5] was 0.39 and the “minimal inhibitory concentration (MIC)” value [6] was 0.39. For the same molecule, the “minimal inhibitory concentration (MIC)” value [7] was greater than 50, the “minimal inhibitory concentration (MIC)” value [8] was 0.097 and the “minimal inhibitory concentration (MIC)” value [9] was 6.25. The “minimal inhibitory concentration (MIC)” value [10] was 0.78, the “minimal inhibitory concentration (MIC)” value [11] was 3.12 and the “minimal inhibitory concentration (MIC)” value [12] was 6.25. The “minimal inhibitory concentration (MIC)” value [13] was 6.25, the “minimal inhibitory concentration (MIC)” value [14] was 6.25 and the “minimal inhibitory concentration (MIC)” value [15] was 0.25. For the same molecule, the “minimal inhibitory concentration (MIC)” value [16] was 0.03, the “minimal inhibitory concentration (MIC)” value [17] was 0.25 and the “minimal inhibitory concentration (MIC)” value [18] was 1. The “minimal inhibitory concentration (MIC)” value [19] was 0.25, the “minimal inhibitory concentration (MIC)” value [20] was 0.25 and the “minimal inhibitory concentration (MIC)” value [21] was 0.25. For the same molecule, the “minimal inhibitory concentration (MIC)” value [22] was 2, the “minimal inhibitory concentration (MIC)” value [23] was 0.25 and the “minimal inhibitory concentration (MIC)” value [24] was 0.25. For the same molecule, the “minimal inhibitory concentration (MIC)” value [25] was 0.25 and the “minimal inhibitory concentration (MIC)” value [26] was 0.25.

`CCC(=O)OCC1C=C(C)C=CC(=O)C(C)CC(CC=O)C(OC2OC(C)C(O)C(N(C)C)C2OC(=O)CC)C(C)C(O)CC(=O)OC1CC` (stereo not drawn) [Compound 10, 2',23-Di-O-Propionyl-OMT] was tested, and the mortality at 30 mg/kg [1] was 10%, the “minimal inhibitory concentration (MIC)” value [2] was 6.25 and the “minimal inhibitory concentration (MIC)” value [3] was 0.097. The “minimal inhibitory concentration (MIC)” value [4] was 6.25, the “minimal inhibitory concentration (MIC)” value [5] was 0.195 and the “minimal inhibitory concentration (MIC)” value [6] was 0.78. The “minimal inhibitory concentration (MIC)” value [7] was 6.25, the “minimal inhibitory concentration (MIC)” value [8] was 0.097 and the “minimal inhibitory concentration (MIC)” value [9] was 1.56. For the same molecule, the “minimal inhibitory concentration (MIC)” value [10] was 0.39, the “minimal inhibitory concentration (MIC)” value [11] was 1.56 and the “minimal inhibitory concentration (MIC)” value [12] was 1.56. For the same molecule, the “minimal inhibitory concentration (MIC)” value [13] was 6.25, the “minimal inhibitory concentration (MIC)” value [14] was 1.56 and the “minimal inhibitory concentration (MIC)” value [15] was 0.25. The “minimal inhibitory concentration (MIC)” value [16] was 0.125, the “minimal inhibitory concentration (MIC)” value [17] was 0.5 and the “minimal inhibitory concentration (MIC)” value [18] was 2. For the same molecule, the “minimal inhibitory concentration (MIC)” value [19] was 0.25, the “minimal inhibitory concentration (MIC)” value [20] was 0.5 and the “minimal inhibitory concentration (MIC)” value [21] was 0.5. For the same molecule, the “minimal inhibitory concentration (MIC)” value [22] was 8, the “minimal inhibitory concentration (MIC)” value [23] was 0.5 and the “minimal inhibitory concentration (MIC)” value [24] was 0.25. For the same molecule, the “minimal inhibitory concentration (MIC)” value [25] was 0.25 and the “minimal inhibitory concentration (MIC)” value [26] was 0.5.

In the case of `CCC1OC(=O)CC(O)C(C)C(OC2OC(C)C(O)C(N(C)C)C2O)C(CC=O)CC(C)C(=O)C=CC(C)=CC1COC(=O)Cc1cc(OC)ccc1OC` (stereo not drawn) [Compound 63], the mortality at 30 mg/kg [1] is reported as 75%, the “minimal inhibitory concentration (MIC)” value [2] is reported as 12.5 and the “minimal inhibitory concentration (MIC)” value [3] is reported as 0.39. For the same molecule, the “minimal inhibitory concentration (MIC)” value [4] was 6.25, the “minimal inhibitory concentration (MIC)” value [5] was 0.195 and the “minimal inhibitory concentration (MIC)” value [6] was 1.56. The “minimal inhibitory concentration (MIC)” value [7] was 6.25, the “minimal inhibitory concentration (MIC)” value [8] was less than 0.05 and the “minimal inhibitory concentration (MIC)” value [9] was 6.25. For the same molecule, the “minimal inhibitory concentration (MIC)” value [10] was 1.56, the “minimal inhibitory concentration (MIC)” value [11] was 6.25 and the “minimal inhibitory concentration (MIC)” value [12] was 3.12. The “minimal inhibitory concentration (MIC)” value [13] was 6.25, the “minimal inhibitory concentration (MIC)” value [14] was 3.12 and the “minimal inhibitory concentration (MIC)” value [15] was 0.25. The “minimal inhibitory concentration (MIC)” value [16] was 0.03, the “minimal inhibitory concentration (MIC)” value [17] was 0.25 and the “minimal inhibitory concentration (MIC)” value [18] was 1. The “minimal inhibitory concentration (MIC)” value [19] was 0.06, the “minimal inhibitory concentration (MIC)” value [20] was 0.125 and the “minimal inhibitory concentration (MIC)” value [21] was 0.25. For the same molecule, the “minimal inhibitory concentration (MIC)” value [22] was 2, the “minimal inhibitory concentration (MIC)” value [23] was 0.25 and the “minimal inhibitory concentration (MIC)” value [24] was 0.25. For the same molecule, the “minimal inhibitory concentration (MIC)” value [25] was 0.125 and the “minimal inhibitory concentration (MIC)” value [26] was 0.25.

Source: patent US4401660A, “Ester derivatives of 5-O-mycaminosyl tylonolide and method of using same” (Eli Lilly and Company, priority 1981, dated 1983)
